“And” between values parts separate entries of the source, which are not always exact repeats. Equal entries are not always repeated. Structures can show the parent of a compound that is named as a salt. Where two headings read alike, the source gives them in different places.
Experiments:
[1] = 1 to 2 hours before sexual intercourse, cited from earlier work
Wistar rats = test: PCA-induced Wistar rat premature ejaculation model; assay type: in vivo
Protocol: Male Wistar rats with a weight of about 300 g were adapted for one week before the experiment was started. On the day of the experiment, the animals were anesthetized with a combination of 20 mg/kg of Zoletil 50 via i.p. and 8 mg/kg of xylazine via i.p., and the body temperature was maintained at 37° C. with a thermal insulation blanket. Exposed common carotid artery was intubated with PE50 to monitor real-time arterial pressure (i.e. systolic pressure, diastolic pressure, and mean arterial pressure). The seminal vesicles and cavernosal muscles of the animals were exposed. The stable baselines of the pressure of the seminal vesicle and the cavernosal myoelectricity were recorded for 10 min. Then the drug was administered through the tail vein for the dapoxetine group, and the tested compound was orally administered for the tested compound group (for the PE model group, the drug was replaced with a solvent). After 1 min, for inducing PE modeling, 5 mg/kg of PCA was injected intraperitoneally, and then the seminal vesicle pressure curve and the change of bulbospongiosus EMG were continuously recorded for 30 min.
• A. Within 30 min, the actual number of ejaculations of the animals and the latency period of the first ejaculation; • B. Within 30 min, the number of the seminal vesicle contractions, the latency period of the first contraction, the basal pressure and the peak pressure.
The experimental data were expressed by means±S.E.M., and statistical analysis was performed by GraphPad Prism 7.0 software. Single factor variance analysis (One-way ANOVA) was used for comparison between multiple groups, and Dunnett't-test was used for statistical analysis in Post hoc test. Student's t-test was used for comparison between two groups. P<0.05 was considered as a significant difference.

[2] = Dapoxetine 2 mg/kg i.v. + PCA 5 mg/kg i.p., within 30 min after PCA induction, individual rats, hydrochloride
[3] = dapoxetine, medium or high dose of A001 to A006

SMILES: CN(C)[C@@H](CCOc1cccc2ccccc12)c1ccccc1 [Dapoxetine, Dapoxetine hydrochloride, reference compound]
- increase of IELT ([1]; 30 mg): 2.5 times
- increase of IELT ([1]; 60 mg): 3.0 times
- Actual number of ejaculations (Wistar rats; [2]): 1 (2×) and 0 (2×) and 2
- Number of the seminal vesicle contractions (Wistar rats; [2]): 1 (3×) and 0 and 3
- Seminal vesicle basal pressure (Wistar rats; [2]): 5.16 mmHg and 4.97 mmHg and 5.37 mmHg and 5.88 mmHg and 4.96 mmHg
- Seminal vesicle peak pressure (Wistar rats; [2]): 6.89 mmHg and 8.1 mmHg and 6.46 mmHg and 6.78 mmHg and 7.03 mmHg
- The first contraction latency period (Wistar rats; [2]): 1448 s and 1705 s and 1800 s and 1749 s and 866 s
- The first ejaculation latency period (Wistar rats; [2]): 1558 s and 1800 s (2×) and 1256 s and 967 s
- latency period of initial seminal vesicle contraction compared with the PE model group (Wistar rats; dapoxetine group (2 mg/kg i.v.), FIG. 4): significant increase
- ejaculation latency period (conclusion) (Wistar rats; [3]): effectively prolong
- number of ejaculations (conclusion) (Wistar rats; [3]): greatly reduce

Source: patent US20260098034A1, “2H-BENZOTRIAZOLE DERIVATIVE, PREPARATION METHOD THEREFOR, AND PHARMACEUTICAL COMPOSITION CONTAINING SAME” (ORXES THERAPEUTICS CO., LTD., priority 2022, published 2026)
